This is an account of results in article PMC8913318 (The Journal of Biological Chemistry, 2022).

By Kd is commonly meant the concentration at which binding is half-saturated. What is called Km is the substrate concentration at which the rate is half of its maximum.

For data set [1], the target named is T1, CYP168A1 (Pseudomonas aeruginosa, UniProt Q9I107).
T1 sequence (Q9I107 1-444): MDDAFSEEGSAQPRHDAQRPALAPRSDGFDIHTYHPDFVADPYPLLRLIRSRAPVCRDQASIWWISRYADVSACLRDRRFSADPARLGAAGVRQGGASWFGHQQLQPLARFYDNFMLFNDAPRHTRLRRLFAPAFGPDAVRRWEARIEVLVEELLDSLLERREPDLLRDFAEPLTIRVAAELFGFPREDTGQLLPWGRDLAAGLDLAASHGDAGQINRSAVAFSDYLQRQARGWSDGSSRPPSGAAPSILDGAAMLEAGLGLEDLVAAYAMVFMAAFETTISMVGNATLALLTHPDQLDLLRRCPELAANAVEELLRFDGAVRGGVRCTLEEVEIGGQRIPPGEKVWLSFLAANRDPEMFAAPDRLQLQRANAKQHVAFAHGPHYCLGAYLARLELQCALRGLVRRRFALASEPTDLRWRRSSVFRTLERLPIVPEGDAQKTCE
Description: biochemical. The conditions noted are these: Ki ± SE, substrate inhibition constant.

For data set [2], the target named is T1, CYP168A1. Briefly: Ligand Kd determination by optical difference spectroscopy. It counts as binding. The conditions noted are these: for Δ absorbance maxima: 1 μM CYP168A1.
In a further data set the test system is P. aeruginosa. The conditions noted are these: exposure of P. aeruginosa to arachidonic acid; cited from earlier work.
The target in data set [3] is T1, CYP168A1. The following applies: 19-HETE formation; substrate inhibition model.
The target in data set [4] is T1, CYP168A1. Briefly: Recombinant CYP168A1 lauric acid in vitro metabolic assays. The format is biochemical.
[5] abbreviates: ND = no spectral shift detected.
Setting [6] is: lauric acid ω-1-hydroxylation, Hill fit (preferred model).

Structures are written as SMILES. Entries after “also recorded” stand apart in the source; their conditions may differ. Where two headings read alike, the source gives them in different places.

In the case of `CCCCC/C=C\C/C=C\C/C=C\C/C=C\CCCC(=O)O` [Arachidonic acid], the Ki at CYP168A1 [1] (18-HETE formation) was 16 ± 8 µM; at CYP168A1 [1] (19-HETE formation), 13 ± 8 µM. Besides, the affinity on CYP168A1 [2], expressed as Kd, was 0.96 ± 0.07 µM. The Δ absorbance maxima on CYP168A1 [2] (setting [5]) was 0.058 AU. Also, in the data set on P. aeruginosa, the “increase in the minimum inhibitory concentration (MIC) for polymyxin B” value is reported as “eightfold increase”. Also, the “Vmax ± SE” value on CYP168A1 [3] is listed as 220 pmol/min/nmol P450.

In the case of `Clc1ccccc1C(c1ccccc1)(c1ccccc1)n1ccnc1` [Clotrimazole], the affinity at CYP168A1 [2], expressed as Kd, was 3 ± 0.4 µM. On CYP168A1 [2] (setting [5]), the Δ absorbance maxima was 0.053 AU.

As to `CCCCCCCCCC(=O)O` [Decanoic acid], the affinity at CYP168A1 [2], expressed as Kd, was 21 ± 4 µM. Moreover, the Δ absorbance maxima on CYP168A1 [2] (setting [5]) is 0.016 AU.

On to `Clc1ccc(COC(Cn2ccnc2)c2ccc(Cl)cc2Cl)cc1` (stereo not shown) [Econazole], for which the Kd at CYP168A1 [2] amounted to 2.5 ± 0.4 µM. Moreover, at CYP168A1 [2] (setting [5]), the Δ absorbance maxima was 0.026 AU.

Turning to `CCCCCCCCCCCC(=O)O` [Lauric acid], on CYP168A1 [4] (LC-MS analysis, spinach redox partners and NADPH), the “proportion of lauric acid metabolized to the ω-hydroxyl derivative” value was less than 5%. Besides, at CYP168A1 [4] (lauric acid ω-1-hydroxylation, Hill fit), the “n, cooperativity value for the substrate binding” value was found to be 1.5. At CYP168A1 [4] (setting [6]), the “S50 ± SE” value amounted to 34 ± 2 µM and the “Vmax ± SE” value is listed as 0.12 ± 0.004 nmol/min/nmol P450. Also, on CYP168A1 [4] (lauric acid ω-1-hydroxylation, Michaelis-Menten fit), the “Vmax ± SE” value came to 0.14 ± 0.006 nmol/min/nmol P450. For the same molecule, the Michaelis-Menten constant (Km) on CYP168A1 [4] (read-out: Km ± SE, lauric acid ω-1-hydroxylation to 11-hydroxylauric acid, Michaelis-Menten fit) amounted to 46 ± 5 µM. Besides, the Δ absorbance maxima on CYP168A1 [2] (setting [5]) amounted to 0.013 AU. For the same molecule, the Kd on CYP168A1 [2] (read-out: Kd ± SE, 1 μM CYP168A1, 100 mM potassium phosphate pH 7.4, one binding site model, ND = no spectral shift detected) was 1.9 ± 0.3 µM.

In turn, `Clc1ccc(COC(Cn2ccnc2)c2ccc(Cl)cc2Cl)c(Cl)c1` (stereo not shown) [Miconazole] had a Kd at CYP168A1 [2] of 0.88 ± 0.18 µM. Further, the Δ absorbance maxima at CYP168A1 [2] (setting [5]) is 0.036 AU.

On to `CCCCCCCCCCCCCC(=O)O` [Myristic acid], for which binding on CYP168A1 [2] was put at a Kd of 0.83 ± 0.15 µM. In addition, the Δ absorbance maxima on CYP168A1 [2] (setting [5]) is recorded as 0.048 AU.

For the molecule `CCCCCCCC/C=C\CCCCCCCC(=O)O` [Oleic acid], the Kd at CYP168A1 [2] stood at 0.37 ± 0.07 µM. For the same molecule, the Δ absorbance maxima on CYP168A1 [2] (setting [5]) is listed as 0.099 AU.

The molecule `CCCCCCCCCCCCCCCC(=O)O` [Palmitic acid] gave a Kd at CYP168A1 [2] of 0.21 ± 0.04 µM. The Δ absorbance maxima on CYP168A1 [2] (setting [5]) amounted to 0.064 AU.

For `CCCCCCCCCCCCCCCCCC(=O)O` [Stearic acid], binding on CYP168A1 [2] was characterised by a dissociation constant (Kd) of 0.33 ± 0.07 µM. Further, the Δ absorbance maxima at CYP168A1 [2] (setting [5]) is given as 0.078 AU.

Consider `CC(C)CCC[C@@H](C)[C@H]1CC[C@H]2[C@@H]3CC=C4C[C@@H](O)CC[C@]4(C)[C@H]3CC[C@]12C` [cholesterol], for which the “Spectral shift of the Soret band (difference spectrum type)” value at CYP168A1 [2] (UV-visible titration of CYP168A1) is reported as “no spectral changes; also recorded: did not exert any changes”.
